Assay results as given in patent publication US6242461A, “Use of aryl substituted azabenzimidazoles in the treatment of HIV and AIDS related diseases” (Pfizer Inc., priority 2000, dated 2001).

The molecules below were run against HIV-1 RT (Human immunodeficiency virus type 1 group M subtype B, UniProt P04585) (assay: HIV Reverse Transcriptase Assay (RNA-dependent DNA polymerase activity, 3H-dCTP incorporation)). Settings: 60 nM HIV-RT, tRNA-Lys3 primer/viral RNA template, 45 minutes, room temperature, 0.7% DMSO.
Type: biochemical
Experimental: Utilizing the Reverse Transcriptase (RT) Assay described below, compounds can be tested for their ability to inhibit the RNA-dependent DNA polymerase activity of HIV-1 RT. Compounds described in the Examples which appear below, were so tested.
HIV Reverse Transcriptase Assay:
HIV reverse transcriptase activity is assessed by following the incorporation of ^3 H-dCTP into newly synthesized DNA using the natural tRNA^Lys3 primer annealed to a viral RNA template sequence. Assays are performed in a final volume of 100 μL in 96-well plates. Briefly, assay buffer (50 mM Tris pH 7.5, 50 mM NaCl, 5 mM MgCl2), primer/template (10-60 nM), dNTPs (dATP, dGTP, dTTP; 100 nM each), and ^3 H-dCTP (180 nM) are combined, and the reaction is initiated with 60 nM HIV-RT. After 45 minutes at room temperature, the assay is quenched with 0.1 M EDTA and harvested onto a DEAE filter using a Skatron Harvester with a solution of 5% Na2 HPO4 -2% sodium pyrophosphate. The filter mats are dried and placed into a plastic bag with 10 ml of scintillant, and counted on a Wallac BetaPlate reader. Non-specific activity is determined by adding 0.1 M EDTA at the start of the assay.
To assess the activity of compounds on HIV-RT activity, compounds are added to the assay prior to addition of enzyme. Compounds are dissolved in 14% DMSO (0.7% final), and tested at 32, 10, 3.2, 1.0, 0.32, and 0.10 μM in triplicate. % Inhibition is calculated according to the following equation: […]
`CC(C)c1nc2cnccc2n1-c1ccc(Cn2c(=O)sc3ccccc32)cc1` [Example 4, 3-[4-(2-lsopropyl-imidazo[4,5-c]pyridin-1-yl)-benzyl]-3H-benzothiazol-2-one] showed an inhibition at 10 µM of 23%.
Work on `Cc1nc2cnccc2n1-c1ccc(Cn2c(=O)sc3cc(Cl)ccc32)cc1` [Example 7, 6-Chloro-3-[4-(2-methyl-imidazo[4,5-c]pyridin-1-yl)-benzyl]-3H-benzothiazol-2-one] yielded an inhibition at 10 µM of 45%.
`Cc1nc2cnccc2n1-c1ccc(Cn2c(=O)oc3ccccc32)cc1` [Example 13, 3-[4-(2-Methyl-imidazo[4,5-c]pyridin-1-yl)-benzyl]-3H-benzooxazol-2-one] gave an inhibition at 10 µM of 61%.
`CCc1nc2cnccc2n1-c1ccc(Cn2c(=O)sc3ccccc32)cc1` [Example 3, 3-[4-(2-Ethyl-imidazo[4,5-c]pyridin-1-yl)-benzyl]-3H-benzothiazol-2-one] showed an inhibition at 10 µM of 72%.
Work on `COc1ccc2c(c1)sc(=O)n2Cc1ccc(-n2c(C)nc3cnccc32)cc1` [Example 6, 6-Methoxy-3-[4-(2-methyl-imidazo[4,5-c]pyridin-1-yl)-benzyl]-3H-benzothiazol-2-one] yielded an inhibition at 10 µM of 22%.
For `Cc1nc2ccccc2n1Cc1ccc(-n2c(C)nc3cnccc32)cc1` [Example 16, 2-Methyl-1-[4-(2-methyl-benzoimidazol-1-ylmethyl)-phenyl]1H-imidazo[4,5-c]pyridine], the inhibition at 10 µM was 20%.
In the case of `Cc1nc2cnccc2n1-c1ccc(Cn2c(=O)sc3ccccc32)cc1` [Example 1, 3-[4-(2-Methyl-imidazo[4,5-c]pyridin-1-yl)-benzyl]-3H-benzothiazol-2-one], the inhibition at 10 µM is reported as 78%.
With `Cc1ccc2c(c1)sc(=O)n2Cc1ccc(-n2c(C)nc3cnccc32)cc1` [Example 5, 6-Methyl-3-[4-(2-methyl-imidazo[4,5-c]pyridin-1-yl)-benzyl]-3H-benzothiazol-2-one] the inhibition at 10 µM was 30%.
Molecule `Cc1nc2cnccc2n1-c1ccc(Cn2c(=O)sc3cc(F)ccc32)cc1` [Example 2, 6-Fluoro-3-[4-(2-methyl-imidazo[4,5-c]pyridin-1-yl)-benzyl]-3H-benzothiazol-2-one] has an inhibition at 10 µM of 76%.
`COc1ccc2sc(=O)n(Cc3ccc(-n4c(C)nc5cnccc54)cc3)c2c1` [Example 8, 5-Methoxy-3-[4-(2-methyl-imidazo[4,5-c]pyridin-1-yl)-benzyl]-3H-benzothiazol-2-one] showed an inhibition at 10 µM of 41%.
